According to US12173061B2, “Compositions and methods for treatment of chronic lung diseases” (Board of Regents, The University of Texas System, priority 2021, dated 2024):

Assays:
[1] = test system: AECs / lung epithelial cells (LECs); conditions: cited from earlier work; for BLM-induced apoptosis of lung epithelial cells (LECs): in vitro and in vivo, prior work; for AEC apoptosis: prior work of the inventor's group
[2] = test system: pulmonary fibrosis after lung injury; conditions: cited from earlier work; for subsequent pulmonary fibrosis: after BLM, prior work; for PF in mice after single (1×) or multi-hit (8×) BLM-, Ad-TGF-β1-, silica- and thoracic radiation-induced lung injury: prior work of the inventor's group
fLfs = conditions: prior work of the inventor's group; cited from earlier work
[3] = test system: BLM-induced pulmonary fibrosis; experiment: BLM-induced established pulmonary fibrosis in mice, treatment d14-d21; type: in vivo; conditions: for BLM-induced pulmonary fibrosis (overall): mice, 1.0 U/kg BLM IT, peptide 10 mg/kg/d IP daily for 7 days starting d14; for lung compliance / lung elastance: flexiVent; for whole lung total hydroxyproline: lung homogenates
Description: FIGS. 9A-9O. M9 peptide and protein mitigated BLM-induced pulmonary fibrosis. Mice exposed to saline or 1.0 U/kg BLM by intratracheal instillation were treated with or without M9 peptide HGHVDPVKTPKI (SEQ ID NO: 4) (10 mg/kg/d) and M9 protein (SEQ ID NO: 1) 7.5 mg/kg/d) via IP injection daily for 7 days starting d14 after BLM injury. FIG. 9A: Representative micro-CT images at d21 after BLM exposure. FIG. 9B: Lung volumes were measured by quantitative-CT renditions. Lung compliance (FIG. 9C) and elastance (FIG. 9D) were measured using a flexiVent system. Lung weights (FIG. 9E) and body weights (FIG. 9F) are presented as bar graphs. Lung homogenates were tested for hydroxyproline (FIG. 9G), soluble collagen (FIG. 9H), pro-fibrogenic marker proteins (FIG. 9I) and mRNAs (FIG. 9J). Bars indicate mean±SD. Statistical significance (*P<0.05, **P<0.01, ***P<0.001 and ****P<0.0001) was assessed by one-way ANOVA with Turkey's multiple comparison. fLfs isolated from IPF lungs treated with PBS or recombinant full length M9 (rM9^FL) protein (2 μg/ml) for 48 h in vitro were tested for pro-fibrogenic proteins (FIG. 9L). fLfs (from IPF lungs) treated with PBS or extracellular domain of rM9^FL protein (rM9^ECD) as in FIG. 9L were tested for pro-fibrogenic proteins (FIG. 9N). The survival the mice treated with rM9^FL is shown FIG. 9M.
FIGS. 10A-10K. UNC5A (“U5”) peptide/protein mitigated BLM-induced pulmonary fibrosis. Mice exposed to saline or 1.0 U/kg BLM by intratracheal instillation were treated with or without U5 peptide (50 residues, SEQ ID NO: 7) (10 mg/kg/d) and full length U5 protein (SEQ ID NO: 5) (7.5 mg/kg/d) via IP injection daily for 7 days starting d14 after BLM injury. FIG. 10A: Representative micro-CT images at d21 after BLM exposure. FIG. 10B: Lung volumes were measured by quantitative-CT renditions. Lung compliance (FIG. 10C) and elastance (FIG. 10D) were measured using a flexiVent system. Lung weights (FIG. 10E) and body weights (FIG. 10F) are presented as bar graphs. Lung homogenates were tested for hydroxyproline (FIG. 10G), soluble collagen (FIG. 10H), pro-fibrogenic marker proteins (FIG. 10I) and mRNAs (FIG. 10J). Bars indicate mean±SD. Statistical significance (*P<0.05, **P<0.01, ***P<0.001 and ****P<0.0001) was assessed by one-way ANOVA with Turkey's multiple comparison.
FIGS. 11A-11K. ALG5 (“A5”) protein mitigated BLM-induced pulmonary fibrosis. Mice exposed to saline or 1.0 U/kg BLM by intratracheal instillation were treated with or without A5 protein (SEQ ID NO: 9) (7.5 mg/kg/d) via IP injection daily for 7 days starting d14 after BLM injury. FIG. 11A: Representative micro-CT images at d21 after BLM exposure. FIG. 11B: Lung volumes were measured by quantitative-CT renditions. Lung compliance (FIG. 11C) and elastance (FIG. 11D) were measured using a flexiVent system. Lung weights (FIG. 11E) and body weights (FIG. 11F) are presented as bar graphs. Lung homogenates were tested for hydroxyproline (FIG. 11G), soluble collagen (FIG. 11H), pro-fibrogenic marker proteins (FIG. 11I) and mRNAs (FIG. 11J). Bars indicate mean±SD. *P<0.05, **P<0.01, ***P<0.001 and ****P<0.0001 were obtained by one-way ANOVA with Turkey's multiple comparison.
FIGS. 12A-12E. WT mice with BLM-PF were treated with or without rM9^ECD (1.5 mg/kg) via intratracheal (IT) instillation daily for 7 d starting d 14 after BLM. Survival (FIG. 12A), body weights (FIG. 12B), lung volumes (FIG. 12C) and lung weights (FIG. 12D) were measured on d 21 post-BLM. Lung homogenates were tested for soluble collagen (FIG. 12E).
FIGS. 13A-13B. FIG. 13A: fLfs (IPF) treated with PBS or M9^mAb (2 μg/ml) or control IgG, tested for pro-fibrogenic proteins (i) and mRNAs (ii). FIG. 13B: WT mice with BLM-PF were left untreated, or intraperitoneal (IP) injected with control IgG or M9^mAb (2.5 mg/kg) daily for 7 d starting 14 d after IT BLM. Body weights (i) and total lung hydroxyproline (ii), and soluble collagen (iii) were measured. […]

[4] = peptide 10 mg/kg/d IP, 7 days starting d14 after BLM
[5] = peptide 10 mg/kg/d IP, 7 days starting d14 after BLM, d21

Substance	BLM-induced apoptosis of lung epithelial cells (LECs) [1]	AEC apoptosis [1]	subsequent pulmonary fibrosis [2]	PF in mice after single (1×) or multi-hit (8×) BLM-, Ad-TGF-β1-, silica- and thoracic radiation-induced lung injury [2]	fLf expansion (fLfs)	BLM-induced fibrogenic marker proteins (Col1, FN, TN-C, α-SMA) in whole lung homogenates [3, 4]	body weight [3, 4]	collagen and other extracellular matrix deposits (Trichrome staining of lung sections) [3, 4]	fibrogenic marker transcripts in whole lung homogenates [3, 4]	lung weight [3, 4]	lung compliance [3, 5]	lung elastance [3, 5]	whole lung total hydroxyproline [3, 4]	other results
DGIWKASFTTFTVTKYWFYR (listed as Homo sapiens) [CSP]	protected	inhibited	prevented	blocked	inhibited									
VYCRKKEGLDSDVADSSILTSGFQPVSIKPSKADNPHLLTIQPDLSTTTT (VYCRKKEGLDSDVADSSILTSGFQPVSIKPSKADNPHLLTIQPDLSTTTT; listed as Homo sapiens) [U5A peptide]						inhibition	improvement	reduction	inhibition	reduction	improved	improved	reduction	BLM-induced pulmonary fibrosis (overall) ([3]; d21, listed as U5A 50-Mer Peptide): Mitigated; BLM-induced pulmonary fibrosis (overall) ([3]; d21, listed as U5 peptide): mitigated
FTTFTVT (listed as Homo sapiens) [CSP7]		inhibited		blocked	inhibited									tolerability in mice ([2]; prior work (Marudamuthu et al., 2019)): well-tolerated
NYHYLESSMTALYTLGH (listed as Homo sapiens) [PP-2]	protected		prevented											
HGHVDPVKTPKI (listed as Homo sapiens) [M9 peptide]						marked inhibition	improvement	remarkable reduction	marked inhibition	reduction	improved	improved	significant inhibition	BLM-induced pulmonary fibrosis (overall) ([3]; d21): mitigated; BLM-induced pulmonary fibrosis (overall) ([3]; d21, listed as M9 12-Mer Peptide): Mitigated; BLM-induced pulmonary fibrosis (overall) ([3]; d21, listed as SEQ ID NO: 4): resolved; lung volume ([3]; peptide 10 mg/kg/d IP, 7 days starting d14 after BLM, quantitative CT, d21): improved
